Source: patent publication EP0058015A2, “Treatment of infections” (BEECHAM GROUP PLC, priority 1981, dated 1982)
“And” between values parts separate entries of the source, which are not always exact repeats. Equal values may be shown once.

Legend:
[1] = test system: bovine mastitis; conditions: recent reports (Poutrel 1978; Postle et al. 1979); cited from earlier work
[2] = test system: S. aureus; assay: Experimental mouse mastitis: intramammary antibiotic therapy 4 h after S. aureus inoculation, viable bacterial count per gland 18 h later; type: in vivo; conditions: for 22 h bacterial counts (log10 cfu/gland) (18 h after treatment), x̄: group mean of five mice; for 22 h bacterial counts (log10 cfu/gland) (18 h after treatment): individual mice, intramammary, 4 h after infection
Experimental: Lactating mice of the Compton white strain were used 4-7 days after parturition. The mice were anaesthetised with ether and c.10^6 cfu S. aureus were inoculated via the teat into the fourth mammary gland on each side (R4 and L4) by the method described by Anderson [Zentralblatt fur Bakteriologie, Parasitenkunde, Infektionskrankheiten und Hygiene (Abteilung 1) Suppl. 5 783-790].
4 Hours later, the mice were divided into four groups and each group received inoculations into R4 and L4 of either cloxacillin, rifampicin, cloxacillin and rifampicin, or saline. After a further 18 hours, the mice were killed. From each mouse, L4 was removed and homogenised in a Griffith's tube with 5 ml sterile saline, and a total viable bacterial count was determined using ox blood agar plates pretreated with S-lactamase.
The log10 bacterial viable counts per gland found after antibiotic (or saline) therapy in each experiment were examined by analysis of variance. Differences between each pair of treatments were then compared for significance in Student's 't' tests, using the value of the.mean square for error obtained in the analysis of variance. Antibiotic residues. Each gland homogenate was also assayed for antibiotic content using an agar well diffusion method with penassay seed agar (Antibiotic medium 1, Difco Labs., Detroit) and Sarcina lutea as the test organism.
Similar treatment to that described above was carried out on mice, in which cloxacillin was replaced by flucloxacillin.
Antibiotics inoculated into mammary glands 4 h after infection at a dose of 1 mg cloxacillin or […] rifampici per gland, or both.

[3] = test system: staphylococcal mastitis infections; assay: Bovine mastitis: intramammary infusion in lactating cows, clinical and bacteriological response at 4 and 7 days after treatment; type: in vivo, staphylococci
Experimental: Twenty one staphylococcal mastitis infections were treated as follows:
Ten infections treated with 3 x 12 hr infusions of a combination of 300 mg Rifampicin and 200 mg Cloxacillin.
Eleven infections treated with 3 x 12 hr infusions of 200 mg Cloxacillin.
The treatment was carried out by intramammary infusion in lactating cows, and the clinical and bacteriological response recorded at 4 and 7 days after treatment.

[4] = lactating cows, 3 x 12 hr infusions of 300 mg Rifampicin and 200 mg Cloxacillin, or of 200 mg Cloxacillin

CO[C@H]1/C=C/O[C@@]2(C)Oc3c(C)c([O-])c4c(O)c(cc(O)c4c3C2=O)NC(=O)/C(C)=C\C=C\[C@H](C)[C@H](O)[C@@H](C)[C@@H](O)[C@@H](C)[C@H](OC(C)=O)[C@@H]1C.[Na+] [rifamycin-S.V.]
effectiveness of therapy in bovine mastitis [1]: less effective than penicillin based preparations

Cc1onc(-c2c(F)cccc2Cl)c1C(=O)N[C@@H]1C(=O)N2[C@@H]1SC(C)(C)[C@@H]2C(=O)O [Fluclox, flucloxacillin]
22 h bacterial counts (log10 cfu/gland) (18 h after treatment), x̄ ([2]; Fluclox 1 mg per gland): 4.403 log10 cfu/gland
22 h bacterial counts (log10 cfu/gland) (18 h after treatment) ([2]; Fluclox 1 mg per gland): 4.243 log10 cfu/gland and 4.796 log10 cfu/gland and 4.158 log10 cfu/gland and 4.340 log10 cfu/gland and 4.477 log10 cfu/gland

Cc1onc(-c2ccccc2Cl)c1C(=O)N[C@@H]1C(=O)N2[C@@H]1SC(C)(C)[C@@H]2C(=O)O [Cloxacillin, cloxacillin]
quarters with raised cell counts ([3]; four days after treatment, eight out of eleven raised before): five
quarters yielding staphylococci ([3]; four days after treatment, eleven infections treated): five
Proportion of quarters cured four days after treatment [3, 4]: 6 out of 11
Proportion of quarters cured seven days after treatment [3, 4]: 5 out of 11
quarters yielding staphylococci ([3]; seven days after treatment, combination ten quarters, cloxacillin alone eleven): six
mean viable bacterial counts per gland, comparison between groups ([2]; M60 S. aureus, cloxacillin/rifampicin experiment, 1 mg cloxacillin or rifampici per gland, or both, 18 h after therapy, P<0.01): reduced bacterial counts to a significantly greater extend than rifampicin treatment

CO[C@H]1/C=C/O[C@@]2(C)Oc3c(C)c(O)c4c(O)c(c(/C=N/N5CCN(C)CC5)c(O)c4c3C2=O)NC(=O)/C(C)=C\C=C\[C@H](C)[C@H](O)[C@@H](C)[C@@H](O)[C@@H](C)[C@H](OC(C)=O)[C@@H]1C [Rifampicin, rifampicin]
22 h bacterial counts (log10 cfu/gland) (18 h after treatment), x̄ ([2]; Rifampicin 25 µg per gland): 4.837 log10 cfu/gland
22 h bacterial counts (log10 cfu/gland) (18 h after treatment) ([2]; Rifampicin 25 µg per gland): 5.694 log10 cfu/gland and 4.581 log10 cfu/gland and 5.536 log10 cfu/gland and 4.258 log10 cfu/gland and 4.118 log10 cfu/gland
